Patent US20110159113A1, “HYPERBRANCHED POLYESTER AND A METHOD OF SYNTHESIZING A HYPERBRANCHED POLYESTER” (priority 2011, published 2011)

Tested on: tumor cells C26
Assay: MTT assay, in vitro cytotoxicity, 72 h incubation
Type: cell-based
Experimental: In vitro cytotoxicity of CDDP, P(CA8-G)-CDDP and P(CA12-G)-CDDP was evaluated by using a MTT assay. To measure cytotoxicity, tumor cells C26 were separately incubated in a plate with different concentrations of CDDP, P(CA8-G)-CDDP and P(CA12-G)-CDDP. The duration of incubation was 72 h. […] With respect to FIG. 13, it is concluded that, loading of cisplatin into the P(CA8-G)-CDDP and P(CA12-G)-CDDP influences its cytotoxicity. […] According to the MTT assay measurements, IC50 doses of free cisplatin, P(CA8-G)-CDDP and P(CA12-G)-CDDP were calculated. IC50 dose is the concentrations of active ingredients necessary to inhibit the cell growth by 50%.
P(CA12-G)-CDDP was synthesized in the same manner as explained above. P(CA8-G)-CDDP and P(CA12-G)-CDDP were used for MTT assay measurements.

Compound: N.N.[Cl][Pt][Cl] [CDDP, cis-dichlorodiammineplatinum (II)]
- IC50: 37.9 µg/mL
